Laboratory results taken from patent US10875845B2, “Compounds and methods for the treatment of ocular disorders” (Azura Ophthalmics Ltd., priority 2019, dated 2020).

Columns and labels:
Rabbit Cornea Homogenate = Rabbit Cornea Homogenate Stability Assay (rabbit cornea esterase assay); assay type: in vitro ADME; conditions: 37° C.
Description: Determining Rabbit Cornea Homogenate stability of the test compounds was performed using HPLC-MS. The assay was performed at two concentrations of Rabbit Cornea Homogenate (0.15 mg/ml and 0.45 mg/ml total protein) so that any hydrolysis observed could be assigned as esterase dependent or not.
Five rabbit corneas (e.g. New Zealand Whites) of approx. 50 mg each were sliced and scraped with a scalpel and tweezers until reduced to small (1-3 mm), thin pieces. These were transferred into a tared vial and accurately weighed, then diluted with 10 volumes aqueous PBS pH7.4
Sample was cooled intermittently on ice and shear homogenized for 3 minutes, then centrifuged for 3 min at 3000 rpm. The supernatant was pipetted off into a vial, and total protein concentration determined at 280 nm. Sample was stored at −78° C.
10 mM Compound stocks were diluted to 100 μM in a 96 deep-well plate: 10 μl of 10 mM Compound stock was added to 990 μl 50 mM HEPES, pH7.5 buffer.
Compounds were further diluted to 10 μM: 100 μl of 100 μM compound was added to 900 μl 50 mM HEPES, pH7.5 buffer.
Esterase homogenate was diluted to 300 ng/μl and 900 ng/μl
A heater shaker was set to 37° C. Into a suitable 96 well plate (Run Plate), 75 μl of 300 or 900 ng/μl esterase homogenate was pipetted into each of the required wells (2 min, 5 min, 10 min, 20 min and 45 min). The plate was sealed and then warmed at 37° C. for 5 min. Another 96 well PCR plate is put on ice (Kill Plate). To this was added 100 μl of MeCN to each well, labelled 0 min, 2 min, 5 min, 10 min, 20 min and 45 min. The plate was covered to minimise evaporation. For the T=0 sample only, to the 100 μl cold MeCN stop solution was added 50 μl of 300 or 900 ng/μl esterase homogenate followed by 50 μl of 10 μM compound solution For the remaining time points, 75 μl of 10 μM compound solution was added to the Run Plate starting from T=45 min row and ending with T=2 min row. At the appropriate time point, 100 μl of the assay mixture was added to the matching kill plate well containing 100 μl of cold MeCN. Samples were analysed as soon as practicable by LCMS (Waters Xevo TQ-S or Micromass Ultima).
Parent conjugate and parent concentrations were determined against appropriate standard response curves and the half-life (T1/2) of the parent conjugate was calculated using the peak area of the parent conjugate at each time point in the linear region of the log—linear plot.

[1] = Aqueous Hydrolysis Stability Assay; assay type: physicochemical; conditions: 100 μM in 50 mM HEPES pH 7.5 buffer or 1:1 Acetonitrile:Water, room temperature
Description: Determination of aqueous stability of the test compounds was performed using HPLC-MS. A test compound 10 mM stock solution was prepared in DMSO. 10 μl of the DMSO stock solution was dissolved in 990 μl of 50 mM HEPES pH 7.5 buffer or 1:1 (v/v) of Acetonitrile:Water to make a 100 μM solution. Final DMSO concentration was 1%. The solution was kept at room temperature and injected without delay into the LCMS (Waters Xevo TQ-S or Micromass Ultima). Additional injections were performed at appropriate time points.
Half-life (T1/2) of the parent conjugate was calculated using the peak area of the parent conjugate at each time point in the linear region of the log—linear plot.

[2] = Cornea Homogenate Conc 0.15 mg/mL
[3] = Cornea Homogenate Conc 0.45 mg/mL

Compound	API Formation rate (Rabbit Cornea Homogenate; [2])	Esterase % Lifitegrast formation at 45 min (Rabbit Cornea Homogenate; [2])	API Formation rate (Rabbit Cornea Homogenate; [3])	Esterase % Lifitegrast formation at 45 min (Rabbit Cornea Homogenate; [3])	Hydrolytic % Lifitegrast formation at [time] ([1]; at 142 min)	Hydrolytic % Lifitegrast formation at [time] ([1]; at 45 min)
CC(OC(=O)OCC(CO)CO)OC(=O)[C@H](Cc1cccc(S(C)(=O)=O)c1)NC(=O)c1c(Cl)cc2c(c1Cl)CCN(C(=O)c1ccc3ccoc3c1)C2 (stereo partly drawn) [Comp 10, 1-(((3-hydroxy-2-(hydroxymethyl)propoxy)carbonyl)oxy)ethyl (2S)-2-(2-(benzofuran-6-carbonyl)-5,7-dichloro-1,2,3,4-tetrahydroisoquinoline-6-carboxamido)-3-(3-(methylsulfonyl)phenyl) propanoate]	b (API formation rate 0.5-1.0%/min)	A (percent active pharmaceutical ingredient (API) formation<25%)	b (API formation rate 0.5-1.0%/min)	B (percent API formation 25% to 50%)	C [142 min] (percent API formation>4%)	–
COC(=O)OC(C)OC(=O)[C@H](Cc1cccc(S(C)(=O)=O)c1)NC(=O)c1c(Cl)cc2c(c1Cl)CCN(C(=O)c1ccc3ccoc3c1)C2 (stereo partly drawn) [Comp 3, 1-((methoxycarbonyl)oxy) ethyl (2S)-2-(2-(benzofuran-6-carbonyl)-5,7-dichloro-1,2,3,4-tetrahydroisoquinoline-6-carboxamido)-3-(3-(methylsulfonyl)phenyl) propanoate]	d (API formation rate>1.5%/min)	B (percent API formation 25% to 50%)	b (API formation rate 0.5-1.0%/min)	C (percent API formation 51% to 75%)	–	B [45 min] (percent API formation 1.5-4%)
CC(OC(=O)OC(C)(C)C)OC(=O)[C@H](Cc1cccc(S(C)(=O)=O)c1)NC(=O)c1c(Cl)cc2c(c1Cl)CCN(C(=O)c1ccc3ccoc3c1)C2 (stereo partly drawn) [Comp 6, 1-((tert-butoxycarbonyl)oxy)ethyl (2S)-2-(2-(benzofuran-6-carbonyl)-5,7-dichloro-1,2,3,4-tetrahydroisoquinoline-6-carboxamido)-3-(3-(methylsulfonyl)phenyl) propanoate]	a (API formation rate<0.5%/min)	A (percent active pharmaceutical ingredient (API) formation<25%)	b (API formation rate 0.5-1.0%/min)	B (percent API formation 25% to 50%)	C [142 min] (percent API formation>4%)	–
CCOC(=O)OC(C)OC(=O)[C@H](Cc1cccc(S(C)(=O)=O)c1)NC(=O)c1c(Cl)cc2c(c1Cl)CCN(C(=O)c1ccc3ccoc3c1)C2 (stereo partly drawn) [Comp 4, 1-((ethoxycarbonyl)oxy)ethyl (2S)-2-(2-(benzofuran-6-carbonyl)-5,7-dichloro-1,2,3,4-tetrahydroisoquinoline-6-carboxamido)-3-(3-(methylsulfonyl)phenyl) propanoate]	b (API formation rate 0.5-1.0%/min)	B (percent API formation 25% to 50%)	c (API formation rate 1.0-1.5%/min)	C (percent API formation 51% to 75%)	–	B [45 min] (percent API formation 1.5-4%)
CC(OC(=O)CO)OC(=O)[C@H](Cc1cccc(S(C)(=O)=O)c1)NC(=O)c1c(Cl)cc2c(c1Cl)CCN(C(=O)c1ccc3ccoc3c1)C2 (stereo partly drawn) [Comp 19, 1-(2-hydroxyacetoxy)ethyl (2S)-2-(2-(benzofuran-6-carbonyl)-5,7-dichloro-1,2,3,4-tetrahydroisoquinoline-6-carboxamido)-3-(3-(methylsulfonyl)phenyl) propanoate]	b (API formation rate 0.5-1.0%/min)	B (percent API formation 25% to 50%)	b (API formation rate 0.5-1.0%/min)	B (percent API formation 25% to 50%)	–	B [45 min] (percent API formation 1.5-4%)

Now from value to compound, other results behind:

API Formation rate (Rabbit Cornea Homogenate; [2])	Esterase % Lifitegrast formation at 45 min (Rabbit Cornea Homogenate; [2])	API Formation rate (Rabbit Cornea Homogenate; [3])	Esterase % Lifitegrast formation at 45 min (Rabbit Cornea Homogenate; [3])	Hydrolytic % Lifitegrast formation at [time] ([1]; at 142 min)	Compound	Hydrolytic % Lifitegrast formation at [time] ([1]; at 45 min)
d (API formation rate>1.5%/min)	C (percent API formation 51% to 75%)	d (API formation rate>1.5%/min)	D (percent API formation>75%)	–	CCC(=O)OC(C)OC(=O)[C@H](Cc1cccc(S(C)(=O)=O)c1)NC(=O)c1c(Cl)cc2c(c1Cl)CCN(C(=O)c1ccc3ccoc3c1)C2 (stereo partly drawn) [Comp 15, 1-(propionyloxy)ethyl (2S)-2-(2-(benzofuran-6-carbonyl)-5,7-dichloro-1,2,3,4-tetrahydroisoquinoline-6-carboxamido)-3-(3-(methylsulfonyl)phenyl) propanoate]	B [45 min] (percent API formation 1.5-4%)
c (API formation rate 1.0-1.5%/min)	C (percent API formation 51% to 75%)	d (API formation rate>1.5%/min)	D (percent API formation>75%)	–	CC(OC(=O)[C@H](Cc1cccc(S(C)(=O)=O)c1)NC(=O)c1c(Cl)cc2c(c1Cl)CCN(C(=O)c1ccc3ccoc3c1)C2)OC(=O)[C@@H](C)O (stereo partly drawn) [Comp 18, 1-(((R)-2-hydroxypropanoyl)oxy) ethyl (2S)-2-(2-(benzofuran-6-carbonyl)-5,7-dichloro-1,2,3,4-tetrahydroisoquinoline-6-carboxamido)-3-(3-(methylsulfonyl)phenyl) propanoate]	C [45 min] (percent API formation>4%)
b (API formation rate 0.5-1.0%/min)	B (percent API formation 25% to 50%)	d (API formation rate>1.5%/min)	C (percent API formation 51% to 75%)	–	CCOC(=O)[C@@H](C)OC(=O)OC(C)OC(=O)[C@H](Cc1cccc(S(C)(=O)=O)c1)NC(=O)c1c(Cl)cc2c(c1Cl)CCN(C(=O)c1ccc3ccoc3c1)C2 (stereo partly drawn) [Comp 8, 1-(((((R)-1-ethoxy-1-oxopropan-2-yl)oxy)carbonyl)oxy)ethyl (2S)-2-(2-(benzofuran-6-carbonyl)-5,7-dichloro-1,2,3,4-tetrahydroisoquinoline-6-carboxamido)-3-(3-(methylsulfonyl)phenyl) propanoate]	A [45 min] (percent active pharmaceutical ingredient (API) formation<1.5%)
d (API formation rate>1.5%/min)	D (percent API formation>75%)	d (API formation rate>1.5%/min)	D (percent API formation>75%)	C [142 min] (percent API formation>4%)	CC(OC(=O)C(C)C)OC(=O)[C@H](Cc1cccc(S(C)(=O)=O)c1)NC(=O)c1c(Cl)cc2c(c1Cl)CCN(C(=O)c1ccc3ccoc3c1)C2 (stereo partly drawn) [Comp 16, 1-(isobutyryloxy)ethyl (2S)-2-(2-(benzofuran-6-carbonyl)-5,7-dichloro-1,2,3,4-tetrahydroisoquinoline-6-carboxamido)-3-(3-(methylsulfonyl)phenyl) propanoate]	–
